Test results as given in US20060020004A1, “Isoxazolidine compounds for treatment of bacterial infections” (Infinity Pharmaceuticals, Inc., priority 2004, published 2006).

Columns and labels:
[1] = tested on: Enterococcus faecalis ATCC 29212; assay: MIC determination, E. faecalis; format: cell-based; conditions: ATCC 29212, 24 h
Description: (§1) Susceptibility testing for bacterial cultures is performed according to the National Council for Clinical Laboratory Standards (NCCLS) protocol M100-S12, “Performance Standards for Antimicrobial Susceptibility Testing.” The bacterial strains recommended by NCCLS were obtained from the American Type Culutre Collection (ATCC) (Table) and were maintained on Mueller Hinton (MHA) agar plates plus or minus 3% lysed horse blood (see Table). The bacteria were grown in Cation adjusted Mueller Hinton Broth (CaMHB) for liquid growth and susceptibility testing. S. cerevisiae (yeast) is grown in yeast peptone dextrose (YPD) media.
(§2) All bacterial cultures were grown at 37 degrees Celsius. Fresh colonies of S. aureus and MRSA were inoculated into liquid media and grown overnight and diluted the next day to grow to mid-log (Table 2). E. faecalis and S. pneumonia mid-log cultures were started directly from colony on plates. To attain mid-log growth, cultures were grown to an optical density (OD) at A590 of 0.2-0.8 (see Table 2) and then diluted to proper OD to obtain 5×10^5 cells/mL.
(§3) Diluted bacterial cultures are added to compound plates with compound diluted 2-fold from 100 μg/mL to 0.2 μg/mL final concentration in DMSO. Control antibiotics are also added: vancomycin, linezolid, and penicillin. In 384 well plates, 0.5 μL compound is added followed by addition of 50 μL of culture. DMSO alone is included as a control. Plates incubated at 37 degrees Celsius for 17-24 h.
(§4) Plates with cells mixed with compounds are incubated for 17 h for S. aureus and yeast, 24 h for MRSA, and all Enterococcus and Streptococcus strains. Yeast plates are incubated […].
(§5) Viability is determined by reading plates at A590 to determine optical density of treated and untreated cells and determining growth inhibition relative to controls.

[2] = tested on: S. cerevisiae Δpdr5; assay: MIC determination, yeast; format: cell-based; conditions: YPD, 30 degrees Celsius
Description: as §1, §3
Yeast cultures are started from a fresh colony into YPD media and then diluted to OD of 0.002. Diluted yeast is added to compound plates as bacteria but incubated at 30 degrees Celsius for 17 h. Controls are amphotericin B and voriconazole.
as §4, §5

[3] = tested on: Staphylococcus aureus (Smith) ATCC 19636; assay: MIC determination, S. aureus; format: cell-based; conditions: S. aureus ATCC 19636, 17 h
Description: as §1, §2, §3, §4, §5

[4] = tested on: Streptococcus pneumonia ATCC 49619; assay: MIC determination, S. pneumonia; format: cell-based; conditions: ATCC 49619, 24 h
Description: as §1, §2, §3, §4, §5

[5] = tested on: Methicillin resistant S. aureus ATCC 33591; assay: MIC determination, MRSA; format: cell-based, Staphylococcus aureus; conditions: MRSA ATCC 33591, 24 h
Description: as §1, §2, §3, §4, §5

[6] = tested on: Penicillin-res. S. pneumonia ATCC 700671; assay: MIC determination, PRSP; format: cell-based, Streptococcus pneumonia; conditions: ATCC 700671, 24 h
Description: as §1, §2, §3, §4, §5

[7] = tested on: Van-intermediate E. faecalis ATCC 51299 / Van-resistant E. faecalis ATCC 700221; assay: MIC determination, VIRE/VRE; format: cell-based, Enterococcus faecalis; conditions: ATCC 51299 / 700221, 24 h
Description: The MICs were determined using a broth micro-dilution assay in accordance with that recommended by the National Committee for Clinical Laboratory Standards (NCCLS). The final bacterial inoculate contained approximately 5×10^5 cfu/mL and the plates were incubated at 35° C. for 18 h in ambient air (Streptococci in 5% CO2). The MIC was defined as the lowest drug concentration that prevented visible growth.
as §1, §2, §3, §4, §5

Row | Compound | MIC E. faecalis [1] | MIC S. cerevisiae Δpdr5 [2] | MIC S. aureus [3] | MIC S. pneuomiae [4] | MIC MRSA [5] | MIC PRSP [6] | MIC VIRE/VRE [7]
1 | CC(O)C1ON(Cc2ccc(C=Cc3ccc(Cl)cc3)cc2)C(C(=O)NCCc2c[nH]c3ccccc23)C1CO (stereo not shown) | *** (the MIC is less than 5 μg/mL) | * (the MIC is >90 μg/mL) | *** (the MIC is less than 5 μg/mL) | ** (the MIC is 5-90 μg/mL) | *** (the MIC is less than 5 μg/mL) | ** (the MIC is 5-90 μg/mL) | * (the MIC is >90 μg/mL)
2 | CC(O)C1ON(Cc2ccc(C#Cc3ccc(Cl)cc3)cc2)C(C(=O)NCCc2c[nH]c3ccccc23)C1CO (stereo not shown) | ** (the MIC is 5-90 μg/mL) | ** (the MIC is 5-90 μg/mL) | *** (the MIC is less than 5 μg/mL) | ** (the MIC is 5-90 μg/mL) | *** (the MIC is less than 5 μg/mL) | ** (the MIC is 5-90 μg/mL) | ** (the MIC is 5-90 μg/mL)
3 | CC(O)C1ON(Cc2ccccc2)C(C(=O)NCCc2c[nH]c3ccccc23)C1CO (stereo not shown) | ** (the MIC is 5-90 μg/mL) | ** (the MIC is 5-90 μg/mL) | ** (the MIC is 5-90 μg/mL) | * (the MIC is >90 μg/mL) | ** (the MIC is 5-90 μg/mL) | * (the MIC is >90 μg/mL) | ** (the MIC is 5-90 μg/mL)
4 | Cc1ccc(C#Cc2ccc(CN3OC(C(C)O)C(CO)C3C(=O)NCCc3c[nH]c4ccccc34)cc2)cc1 (stereo not shown) [drawing 205] | ** (the MIC is 5-90 μg/mL) | ** (the MIC is 5-90 μg/mL) | *** (the MIC is less than 5 μg/mL) | ** (the MIC is 5-90 μg/mL) | *** (the MIC is less than 5 μg/mL) | ** (the MIC is 5-90 μg/mL) | ** (the MIC is 5-90 μg/mL)
